Experimental data taken from patent US20240425464A1, “Substituted Monohydrazides as Potent Antifungal Agents” (University of Kentucky Research Foundation, priority 2023, published 2024).
Converted amounts (≈) assume the structure as drawn. Read-outs that look alike come from different tables or passages of the source.

System: Candida auris strain AR Bank #384 (K)
Assay: MIC determination by in vitro antifungal assay
Assay type: cell-based
Protocol: The antifungal agent amphotericin B (AmB) was purchased from VWR (Radnor PA, USA). AmB was dissolved in DMSO at a final concentration of 5 mg/mL and was stored at −20° C., protected from light. Candida albicans American Type Culture Collection (ATCC) 10231 (strain A), C. albicans ATCC 64124 (B), and C. albicans ATCC MYA-2876 (C) were obtained from Utah State University. C. albicans ATCC 90819 (D), C. albicans ATCC MYA-2310 (E), C. albicans ATCC MYA-1237 (F), C. albicans ATCC MYA-1003 (G), Candida glabrata ATCC 2001 (H), Candida krusei ATCC 6258 (I), Candida parapsilosis ATCC 22019 (J), Cryptococcus neoformans ATCC MYA-895 (M), Aspergillus terreus ATCC MYA-3633 (N), and Aspergillus flavus ATCC MYA-3631 (0) were obtained from the American Type Culture Collection (ATCC; Manassas, VA, USA). Aspergillus nidulans ATCC 38163 (P) was obtained from University of Kentucky. Clinically derived Aspergillus fumigatus NRRL 163 (Q), A. fumigatus NRRL 5109 (R), and A. fumigatus NRRL 6113 (S) were obtained from Northern Regional Research Laboratory (NRRL). Candida auris 384 (K), C. auris 390 (L), and fungal strains 381-400 (including 10 C. auris (AR Bank #381-390), 3 Candida duobushaemulonii (AR Bank #391, AR Bank #392, and AR Bank #394), 2 Candida haemulonii (AR Bank #393 and AR Bank #395), 1 Kodameae ohmeri (AR Bank #396), 1 C. krusei (AR Bank #397), 1 Candida lusitaniae (AR Bank #398), and 2 Saccharomyces cerevisiae strains (AR Bank #399 and AR Bank #400)) were part of a larger fungal library from the AR Bank maintained by the Centers for Disease Control and Prevention (CDC; Atlanta, GA, USA). Filamentous fungi and yeasts were cultivated at 35° C. in RPMI 1640 medium (with L-glutamine, without sodium bicarbonate, Sigma-Aldrich, St. Louis, MO) buffered to a pH of 7.0 with 0.165 M morpholinepropanesulfonic acid (MOPS) buffer (Sigma-Aldrich). For cytotoxicity assays, HepG2 and the mouse macrophage cell line J774A.1 were obtained from University of Kentucky. The human embryonic kidney cell line, HEK-293, was bought from the ATCC. Mammalian cells were grown in Dulbecco's Modified Eagle's Medium (DMEM) (from VWR) with 10% fetal bovine serum (FBS) (from VWR) and 1% Pen/Strep (from ATCC). Cell lines were cultured at 37° C. with 5% CO2 and passaged by trypsinization with 0.05% trypsin: 0.53 mM EDTA (from Sigma-Aldrich).
From the actively growing yeast culture, 100 µL were then transferred to 900 μL of RPMI 1640 medium and re-adjusted to achieve OD600 of 0.12 (˜1×10^6 CFU/mL). The cell suspension was further diluted to achieve 1:100 in RPMI 1640 medium.
Finally, the activity of these monohydrazides was explored against […] non-Candida strains: Cryptococcus neoformans ATCC MYA-895 (M), Aspergillus terreus ATCC MYA-3633 (N), Aspergillus flavus ATCC MYA-3631 (O), Aspergillus nidulans ATCC 38163 (P), Aspergillus fumigatus NRRL 163 (Q), A. fumigatus NRRL 5109 (R), and A. fumigatus NRRL 6113 (S) (Tables 1A and 1B). The double dilution method was used with concentrations ranging from 0.06 to 31.3 j·tg mL^−1 for monohydrazides 1a-9j, and the commercially available positive antifungal control amphotericin B (AmB).

[1] = strain K = C. auris AR Bank # 0384 (Tables 1A/1B)
[2] = Candidozyma auris, C. auris AR Bank # 384 (K) (Table 2B), read-out: MIC
[3] = Candidozyma auris, strain K = C. auris AR Bank # 0384 (Tables 1A/1B), read-out: MIC
[4] = C. auris AR Bank # 384 (K) (Table 2B)
[5] = Candidozyma auris, C. auris AR Bank #384 (K), read-out: MIC

Compound | MIC [1] | MIC [3] | also measured
COc1ccc(NNC(=O)c2ccc(F)cn2)cc1 [Compound 3f] | 3.9 μg/mL^−1 |  | 
O=C(NNc1ccc(F)cc1F)c1ncc(F)cc1F [Compound 7g] |  | 7.8 µg/mL (≈ 27.3 µM) | MIC [2]: 0.98 µg/mL (≈ 3.44 µM)
O=C(NNc1ccc(Cl)cc1)c1cccc(F)n1 [Compound 5e] | 3.9 μg/mL^−1 |  | MIC [4]: 3.9 μg/mL^−1
O=C(NNc1cccc(Cl)c1)c1ccccn1 [Compound 2b] | 0.98 μg/mL^−1 |  | MIC (C. auris AR Bank #384 (K)): 0.98 μg/mL^−1
O=C(NNc1ccc(Cl)cc1)c1cnccn1 [Compound 9e] | 1.95 μg/mL^−1 |  | MIC (C. auris AR Bank #384 (K)): 1.95 μg/mL^−1
O=C(NNc1ccc(F)cc1F)c1ccc(Br)cn1 [Compound 4g] |  | 3.9 µg/mL (≈ 11.9 µM) | 
O=C(NNc1cc(Cl)cc(Cl)c1)c1cnccn1 [Compound 9j] |  | 15.6 µg/mL (≈ 55.1 µM) | 
O=C(NNc1ccc(Cl)cc1)c1ncc(F)cc1F [Compound 7e] | 3.9 μg/mL^−1 |  | MIC [4]: 7.9 μg/mL^−1
O=C(NNc1ccc(Cl)cc1)c1ccc(F)cc1F [Compound 1e] | 7.8 μg/mL^−1 |  | 
COc1ccc(NNC(=O)c2cccc(F)n2)cc1 [Compound 5f] |  | 1.95 µg/mL (≈ 7.46 µM) | 
O=C(NNc1ccc(Cl)cc1)c1ccc(F)cn1 [Compound 3e] | 7.8 μg/mL^−1 |  | MIC [4]: 7.8 μg/mL^−1
O=C(NNc1cc(F)ccc1F)c1ccc(F)cc1F [Compound 1h] |  | 31.3 µg/mL (≈ 110 µM) | 
O=C(NNc1ccc(F)cc1F)c1cccc(F)n1 [Compound 5g] |  | 7.8 µg/mL (≈ 29.2 µM) | MIC [2]: 3.9 µg/mL (≈ 14.6 µM)
O=C(NNc1cc(F)ccc1F)c1ccccn1 [Compound 2h] |  | 0.24 µg/mL (≈ 0.963 µM) | MIC [5]: 1.95 µg/mL (≈ 7.82 µM)
O=C(NNc1ccc(F)cc1F)c1ccc(F)cc1F [Compound 1g] |  | 15.6 µg/mL (≈ 54.9 µM) | 
COc1cccc(NNC(=O)c2ccc(Br)cn2)c1 [Compound 4c] |  | 1.95 µg/mL (≈ 6.05 µM) | 
COc1cccc(NNC(=O)c2nc(F)ccc2F)c1 [Compound 8c] |  | 15.6 µg/mL (≈ 55.9 µM) | 
O=C(NNc1ccc(F)cc1)c1nc(F)ccc1F [Compound 8d] |  | 1.95 µg/mL (≈ 7.3 µM) | MIC [2]: 0.49 µg/mL (≈ 1.83 µM)
O=C(NNc1cccc(Cl)c1)c1cnccn1 [Compound 9b] |  | 1.95 µg/mL (≈ 7.84 µM) | MIC [5]: 0.98 µg/mL (≈ 3.94 µM)
O=C(NNc1cccc(F)c1)c1cccc(Br)n1 [Compound 6a] | 3.9 μg/mL^−1 |  | 
O=C(NNc1cccc(Cl)c1)c1ccc(F)cc1F [Compound 1b] |  | 13.6 µg/mL (≈ 48.1 µM) | MIC [2]: 7.8 µg/mL (≈ 27.6 µM)

Compound | MIC [1] | MIC [3] | also measured
O=C(NNc1ccc(Cl)cc1)c1nc(F)ccc1F [Compound 8e] | 7.8 μg/mL^−1 |  | MIC [4]: 7.8 μg/mL^−1
O=C(NNc1ccc(F)cc1F)c1ccccn1 [Compound 2g] |  | 0.49 µg/mL (≈ 1.97 µM) | MIC [5]: 0.49 µg/mL (≈ 1.97 µM)
O=C(NNc1ccc(F)cc1)c1cccc(Br)n1 [Compound 6d] |  | 3.9 µg/mL (≈ 12.6 µM) | MIC [2]: 0.98 µg/mL (≈ 3.16 µM)
O=C(NNc1cccc(F)c1)c1ccc(F)cn1 [Compound 3a] | 1.95 μg/mL^−1 |  | 
O=C(NNc1ccc(Cl)cc1)c1ccccn1 [Compound 2e] | 1.95 μg/mL^−1 |  | MIC (C. auris AR Bank #384 (K)): 1.95 μg/mL^−1
O=C(NNc1cc(F)cc(F)c1)c1cnccn1 [Compound 9i] |  | 0.49 µg/mL (≈ 1.96 µM) | 
COc1cccc(NNC(=O)c2ccc(F)cn2)c1 [Compound 3c] | 1.95 μg/mL^−1 |  | MIC [4]: 0.49 μg/mL^−1
COc1ccc(NNC(=O)c2cccc(Br)n2)cc1 [Compound 6f] |  | 1.95 µg/mL (≈ 6.05 µM) | 
O=C(NNc1cc(Cl)cc(Cl)c1)c1ccc(F)cc1F [Compound 1j] |  | > 31.3 µg/mL | MIC [2]: 15.6 µg/mL (≈ 49.2 µM)
O=C(NNc1ccc(F)cc1)c1ccccn1 [Compound 2d] |  | 3.9 µg/mL (≈ 16.9 µM) | MIC [5]: 3.9 µg/mL (≈ 16.9 µM)
COc1ccc(NNC(=O)c2cnccn2)cc1 [Compound 9f] |  | 0.49 µg/mL (≈ 2.01 µM) | MIC [5]: 0.98 µg/mL (≈ 4.01 µM)
O=C(NNc1ccc(F)cc1)c1cccc(F)n1 [Compound 5d] |  | 1.95 µg/mL (≈ 7.82 µM) | MIC [2]: 0.49 µg/mL (≈ 1.97 µM)
O=C(NNc1ccc(F)cc1F)c1cnccn1 [Compound 9g] |  | 3.9 µg/mL (≈ 15.6 µM) | MIC [5]: 3.9 µg/mL (≈ 15.6 µM)
O=C(NNc1cccc(F)c1)c1cnccn1 [Compound 9a] | 0.98 μg/mL^−1 |  | 
O=C(NNc1cc(Cl)cc(Cl)c1)c1ccccn1 [Compound 2j] |  | 7.8 µg/mL (≈ 27.6 µM) | MIC [5]: 7.8 µg/mL (≈ 27.6 µM)
O=C(NNc1ccc(F)cc1)c1ccc(F)cn1 [Compound 3d] | 3.9 μg/mL^−1 |  | MIC [4]: 0.98 μg/mL^−1
COc1ccc(NNC(=O)c2ccc(Br)cn2)cc1 [Compound 4f] |  | 1.95 µg/mL (≈ 6.05 µM) | 
O=C(NNc1cccc(F)c1)c1ccccn1 [Compound 2a] | 1.95 μg/mL^−1 |  | MIC (C. auris AR Bank #384 (K)): 1.95 μg/mL^−1
COc1ccc(NNC(=O)c2ccc(F)cc2F)cc1 [Compound 1f] |  | 1.95 µg/mL (≈ 7.01 µM) | 
O=C(NNc1ccc(F)cc1F)c1nc(F)ccc1F [Compound 8g] |  | 3.9 µg/mL (≈ 13.7 µM) | MIC [2]: 0.98 µg/mL (≈ 3.44 µM)
O=C(NNc1cccc(F)c1)c1nc(F)ccc1F [Compound 8a] | 1.95 μg/mL^−1 |  | 

Compound | MIC [1] | MIC [3] | also measured
COc1cccc(NNC(=O)c2ccccn2)c1 [Compound 2c] | 0.98 μg/mL^−1 |  | MIC (C. auris AR Bank #384 (K)): 0.98 μg/mL^−1
O=C(NNc1cccc(F)c1)c1ccc(F)cc1F [Compound 1a] | 1.95 μg/mL^−1 |  | 
COc1cccc(NNC(=O)c2ccc(F)cc2F)c1 [Compound 1c] |  | 1.95 µg/mL (≈ 7.01 µM) | 
O=C(NNc1ccc(F)cc1)c1ccc(Br)cn1 [Compound 4d] |  | 7.8 µg/mL (≈ 25.2 µM) | MIC [2]: 1.95 µg/mL (≈ 6.29 µM)
O=C(NNc1cc(F)cc(F)c1)c1ccccn1 [Compound 2i] |  | 0.24 µg/mL (≈ 0.963 µM) | MIC [5]: 0.98 µg/mL (≈ 3.93 µM)
C[C@@H]1[C@H](O)[C@@H](C)/C=C/C=C/C=C/C=C/C=C/C=C/C=C/[C@H](O[C@@H]2O[C@H](C)[C@@H](O)[C@H](N)[C@@H]2O)C[C@@H]2O[C@](O)(C[C@@H](O)C[C@@H](O)[C@H](O)CC[C@@H](O)C[C@@H](O)CC(=O)O[C@H]1C)C[C@H](O)[C@H]2C(=O)O [AmB, amphotericin B, reference compound] | 1.95 μg/mL^−1 |  | MIC (C. auris AR Bank #384 (K)): 1.95 μg/mL^−1; MIC [4]: 1.95 μg/mL^−1
O=C(NNc1cccc(F)c1)c1cccc(F)n1 [Compound 5a] | 1.95 μg/mL^−1 |  | 
COc1ccc(NNC(=O)c2nc(F)ccc2F)cc1 [Compound 8f] |  | 3.9 µg/mL (≈ 14 µM) | MIC [2]: 0.98 µg/mL (≈ 3.51 µM)
O=C(NNc1ccc(F)cc1)c1ncc(F)cc1F [Compound 7d] |  | 1.95 µg/mL (≈ 7.3 µM) | MIC [2]: 0.49 µg/mL (≈ 1.83 µM)
COc1ccc(NNC(=O)c2ncc(F)cc2F)cc1 [Compound 7f] |  | 3.9 µg/mL (≈ 14 µM) | MIC [2]: 0.98 µg/mL (≈ 3.51 µM)
O=C(NNc1ccc(F)cc1F)c1ccc(F)cn1 [Compound 3g] |  | 7.8 µg/mL (≈ 29.2 µM) | MIC [2]: 0.98 µg/mL (≈ 3.67 µM)
COc1cccc(NNC(=O)c2cnccn2)c1 [Compound 9c] |  | 1.95 µg/mL (≈ 7.98 µM) | MIC [5]: 1.95 µg/mL (≈ 7.98 µM)
O=C(NNc1ccc(F)cc1)c1ccc(F)cc1F [Compound 1d] |  | 1.95 µg/mL (≈ 7.32 µM) | 
O=C(NNc1cccc(F)c1)c1ncc(F)cc1F [Compound 7a] | 1.95 μg/mL^−1 |  | 
O=C(NNc1cc(F)ccc1F)c1cnccn1 [Compound 9h] |  | 0.49 µg/mL (≈ 1.96 µM) | 
O=C(NNc1cc(F)cc(F)c1)c1ccc(F)cc1F [Compound 1i] |  | 15.6 µg/mL (≈ 54.9 µM) | 
O=C(NNc1cccc(F)c1)c1ccc(Br)cn1 [Compound 4a] | 1.95 μg/mL^−1 |  | 
COc1cccc(NNC(=O)c2ncc(F)cc2F)c1 [Compound 7c] |  | 7.8 µg/mL (≈ 27.9 µM) | 
COc1ccc(NNC(=O)c2ccccn2)cc1 [Compound 2f] |  | 3.9 µg/mL (≈ 16 µM) | MIC [5]: 3.9 µg/mL (≈ 16 µM)
O=C(NNc1ccc(F)cc1)c1cnccn1 [Compound 9d] |  | 0.49 µg/mL (≈ 2.11 µM) | 
